Test results taken from patent publication US20100135905A1, “ASSESSMENT OF CANCER SUSCEPTIBILITY TO MOLECULAR TARGETED THERAPY BY USE OF RECOMBINANT PEPTIDES” (priority 2004, published 2010).
No end group written: not given here.

Tests used:
[1] = test system: tumor vascular endothelium; details: Geng et al., 2001; Lu et al., 2004; cited from earlier work
[2] = target: T1, GP-IIb/IIIa receptors on activated platelets (Homo sapiens, UniProt P05106+P08514); test: Clinical gamma camera/SPECT imaging of 99mTc-labeled bibapcitide in irradiated tumors; format: in vivo, patients
T1 construct: from tissue
T1 sequence (P08514 32-887 limits assumed): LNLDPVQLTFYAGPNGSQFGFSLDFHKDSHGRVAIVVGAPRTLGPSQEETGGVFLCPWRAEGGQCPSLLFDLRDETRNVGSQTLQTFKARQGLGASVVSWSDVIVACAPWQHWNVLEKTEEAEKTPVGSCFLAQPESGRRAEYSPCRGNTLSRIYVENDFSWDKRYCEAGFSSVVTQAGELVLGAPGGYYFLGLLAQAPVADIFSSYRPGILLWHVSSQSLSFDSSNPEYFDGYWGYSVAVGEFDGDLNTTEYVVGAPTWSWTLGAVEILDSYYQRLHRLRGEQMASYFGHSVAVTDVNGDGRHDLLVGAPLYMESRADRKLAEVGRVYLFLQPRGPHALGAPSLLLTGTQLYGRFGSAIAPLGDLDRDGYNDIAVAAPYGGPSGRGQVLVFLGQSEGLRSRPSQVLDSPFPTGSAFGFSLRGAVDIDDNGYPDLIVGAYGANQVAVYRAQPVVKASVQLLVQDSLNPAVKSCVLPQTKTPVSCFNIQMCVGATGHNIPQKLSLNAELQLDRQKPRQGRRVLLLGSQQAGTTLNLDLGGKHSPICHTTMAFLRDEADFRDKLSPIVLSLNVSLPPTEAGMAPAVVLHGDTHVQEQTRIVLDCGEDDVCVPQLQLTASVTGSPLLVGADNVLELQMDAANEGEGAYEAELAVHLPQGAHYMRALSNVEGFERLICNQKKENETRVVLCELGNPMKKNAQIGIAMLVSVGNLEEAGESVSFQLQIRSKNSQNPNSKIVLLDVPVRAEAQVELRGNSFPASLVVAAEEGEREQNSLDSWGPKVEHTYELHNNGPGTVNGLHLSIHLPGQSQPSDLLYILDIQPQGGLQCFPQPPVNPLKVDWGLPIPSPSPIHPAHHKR
T1 sequence (P08514 891-1039 partner limits assumed): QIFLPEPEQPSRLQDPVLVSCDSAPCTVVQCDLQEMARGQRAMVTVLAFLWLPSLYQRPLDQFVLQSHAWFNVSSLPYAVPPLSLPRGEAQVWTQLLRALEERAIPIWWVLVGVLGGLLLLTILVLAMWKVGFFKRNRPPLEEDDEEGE
T1 sequence (P05106 27-788): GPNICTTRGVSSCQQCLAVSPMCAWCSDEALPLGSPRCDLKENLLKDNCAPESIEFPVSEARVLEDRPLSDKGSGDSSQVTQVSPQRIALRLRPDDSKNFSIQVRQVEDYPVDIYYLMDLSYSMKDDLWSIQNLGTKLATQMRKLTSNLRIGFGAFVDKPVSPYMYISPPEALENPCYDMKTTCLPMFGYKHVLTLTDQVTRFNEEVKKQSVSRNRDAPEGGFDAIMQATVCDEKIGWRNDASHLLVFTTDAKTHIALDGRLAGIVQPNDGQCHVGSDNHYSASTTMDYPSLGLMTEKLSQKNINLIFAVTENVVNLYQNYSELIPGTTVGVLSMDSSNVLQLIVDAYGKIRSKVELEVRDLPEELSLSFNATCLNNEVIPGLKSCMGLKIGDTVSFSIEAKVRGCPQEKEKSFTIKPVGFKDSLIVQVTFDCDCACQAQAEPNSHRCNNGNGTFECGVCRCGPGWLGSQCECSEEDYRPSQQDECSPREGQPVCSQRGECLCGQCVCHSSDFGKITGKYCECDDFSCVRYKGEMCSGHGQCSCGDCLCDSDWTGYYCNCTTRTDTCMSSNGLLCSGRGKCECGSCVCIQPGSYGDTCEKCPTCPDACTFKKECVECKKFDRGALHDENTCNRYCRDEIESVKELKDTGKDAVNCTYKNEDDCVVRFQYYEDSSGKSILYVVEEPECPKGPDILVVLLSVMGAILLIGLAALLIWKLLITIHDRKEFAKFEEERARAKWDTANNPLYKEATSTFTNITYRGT
Protocol: Ligand Preparation and Administration. Bibapcitide (ACUTECT™, available from Diatide, Inc. of Londonderry, N.H., United States of America) is a synthetic peptide that binds to GP-IIb/IIIa receptors on activated platelets (Hawiger et al., 1989; Hawiger & Timmons, 1992). Bibapcitide was labeled with ^99mTc in accordance with a protocol provided by Diatide Inc.
Reconstituted ^99mTc-labeled bibapcitide was administered to patients at a dose of 100 μg of bibapcitide radiolabeled with 10 mCi of ^99mTc. […] Patients underwent gamma camera imaging prior to irradiation and 24 hours following irradiation.
Following planar image acquisition, those patients showing uptake in irradiated tumors underwent tomographic imaging using SPECT and repeat imaging at 24 hours. Patients showing no uptake on planer images during this 24-hour time frame had no further imaging.
Patients were treated with X-irradiation ranging from 4 to 18 MV photon using external beam linear accelerator at Vanderbilt University. Appropriate blocks, wedges, and bolus to deliver adequate dose to the planned target volume was utilized. The site of irradiation, treatment intent, and normal tissue considerations determined the radiation dosage and volume. When stereotactic radiosurgery was used, the dose was prescribed to the tumor periphery.
Image Analysis. Image acquisition consisted of both planar and single photon emission computed tomography (SPECT) studies. Planar studies were performed on a dual-head gamma camera (Millennium VG-Variable Geometry model available from General Electric Medical Systems of Milwaukee, Wis., United States of America) equipped with low energy high-resolution (LEUR) collimators. This type of collimator represents a compromise between sensitivity (photon counting efficiency) and image resolution. Planar nuclear medicine images were acquired with a 256×256 acquisition matrix (pixel size approximately 0.178 cm/pixel) for 10 minutes. In order to maximize collimator-gamma camera system sensitivity the source-to-detector surface distance was minimized to the extent that patient geometry allows. The spatial distribution of […] within the planar image was measured using region-of-interest (ROI) analysis. Two different size ROIs (5×5 pixel, and 15×15 pixel) was used in both the tumor and surrounding organs and tissues in the patient. The rationale for using ROIs with different dimensions is to be able to quantify image counts while at the same time isolating any possible influence of ROI size on the results. Tumor-to-background ratios were computed as the ratio of average counts in the tumor region divided by average counts in surrounding organs and tissues, each corrected for background. Background counts was determined based on ROI analysis of a separate planar acquisition performed in the absence of a radioactive source.
Three-dimensional nuclear medicine SPECT examinations were performed using the same dual-head gamma camera system. Each SPECT study comprised a 360 scan acquired with a step-and-shoot approach utilizing the following acquisition parameters: three increments between views, a 256×256×64 acquisition matrix, LEUR collimation and 60 seconds per view. […] SPECT tumor-to-background ratios were computed using quantitative ROI techniques identical to the planar studies. […]

LLC and GL261 tumors = test: Conserved motifs within phage peptides recovered by in vivo panning from both tumor models; parameters: species or system mice; details: for Frequency of Recovery of conserved sequence: share of phage peptides recovered from irradiated tumors that contain the sequence
Protocol: (§1) For in vivo panning, tumors were irradiated with 3 Gy and approximately 10^10 phage (prepared as described in Example 1) were administered by tail vein injection into each of the tumor bearing mice at 4 hours following irradiation. Tumors were recovered at one hour following injection and amplified in BL21 bacteria. Amplified phage were pooled and re-administered to a tumor-bearing mouse following tumor irradiation. The phage pool was sequentially administered to a total of 6 animals. As a control, wild type phage lacking synthetic peptide inserts were identically administered to a second experimental group of animals.
(§2) Following six rounds of in vivo panning, fifty recombinant phage peptides that bound within irradiated tumors were randomly selected for further analysis. The nucleic acid sequence encoding recombinant phage was amplified by PCR using primers set forth as SEQ ID NOs: 20-21 (available from Novagen Brand, a unit of EMD Biosciences, Inc., Madison, Wis.). An individual phage suspension was used as template. Amplified peptides were sequenced using an ABI PRISM® 377 sequencer (Applied Biosystems of Foster City, Calif., United States of America).
The amino acid sequences of all phage that were recovered from both tumors were studied in order to identify homologous sequences (Table 2). The most commonly recovered phage peptide had amino acid sequence HVGGSSV (SEQ ID NO: 1), and the second most common sequence was […] (SEQ ID NO: 2). The probability of recovering these peptide sequences from both tumor subtypes is 625/10^14 for each of the peptide sequences. The peptide sequence GSSV (SEQ ID NO: 9) was present in 58% of the phage recovered from tumors. Homology between peptides recovered from LLC and GL261 included 100% homology in […] (SEQ ID NO: 2) and 70% homology in RGSGSRV (SEQ ID NO.: 12). Of interest is a 6 amino acid homology spanning over 8 amino acids that include amino acids SXRGXGS (SEQ ID NO: 13), which was recovered from 28% of all phage in 2 tumor models (p<0.0001). The probability of having six identical amino acids by chance is 6^−24.

[3] = test system: responding tumor blood vessels; test: Biotinylated peptide binding in tumor blood vessels, FITC-avidin fluorescent microscopy; format: in vivo, mice
Protocol: The amino acid sequence RGXGSXV (SEQ ID NO: 18) was found in 41% of phage recovered from treated LLC tumors. To determine the pattern of RGDGSSV (SEQ ID NO: 10) peptide binding within responding tumor blood vessels, biotinylated peptide was administered by tail vein injection. Tumors were implanted into both hind limbs of mice. The right tumor was irradiated according to Example 2, and the left served as an untreated internal negative control. Biotinylated peptide was administered by tail vein injection immediately prior to tumor irradiation.

LLC tumors = test: In vivo panning of T7 phage peptide library: phage recovered from irradiated LLC tumors; parameters: species or system mice
Protocol: (§3) GL261 murine glioma cells and Lewis lung carcinoma (LLC) cells were implanted into the hind limb of C57BL/6 mice (see Hallahan et al., 1995b; Hallahan et al., 1998; Hallahan & Virudachalam, 1999).
as §1
(§4) To determine the titer of phage binding in a tumor or in normal tissue, recovered phage were amplified in BL21 bacteria. Bacteria were plated and the number of plaques present was counted. To determine the total phage output per organ, the number of plaque forming units (PFU) on each plate was divided by the volume of phage plated and the weight of each organ. Normal variation was observed as a 2-fold difference in PFU. In the present Example, background binding within tumor blood vessels was approximately 10^4 phage. Phage that bound to the vasculature within irradiated tumors show enrichment in the tumor relative to other organs and enrichment in the irradiated tumor relative to the control phage without DNA insert.
as §2

[4] = test system: B16F0 melanoma, lung carcinoma and glioma tumor models; test: Binding of phage-encoded peptides in additional tumor models; format: in vivo; details: phage encoding the peptide
From the text: The binding properties of phage encoding HVGGSSV (SEQ ID NO: 1), […] (SEQ ID NO: 2), […] (SEQ ID NO: 3), and SVGSRV (SEQ ID NO: 4) were additionally characterized in a B16F0 melanoma model.

GL261 tumors = test: In vivo panning of T7 phage peptide library: phage recovered from irradiated GL261 tumors; parameters: species or system mice; details: Experiment A, 3 Gy; for Phage Recovered from GL261 tumors: number of sequenced phage after six rounds; for Phage Recovered from GL261 tumors (Frequency): six rounds
Protocol: as §3, §1, §4, §2

[5] = Experiment B, number of sequenced phage
[6] = Experiment A, number of sequenced phage after six rounds, 3 Gy

Cc1cc(C)c(/C=C2\C(=O)Nc3ccccc32)[nH]1 [SU5416]
Apoptosis within tumor vascular endothelium [1]: induced apoptosis within tumor vascular endothelium

Cc1[nH]c(/C=C2\C(=O)Nc3ccccc32)c(C)c1CCC(=O)O [SU6668]
Apoptosis within tumor vascular endothelium [1]: induced apoptosis within tumor vascular endothelium

Bibapcitide [^99mTc-labeled bibapcitide]
Tumor binding ([2]; administered immediately prior to radiation, 10 Gy or more): 4 of 4 | Localization to tumor ([2]; administered within one hour following radiation): failed to show localization | Specificity of binding ([2]; clinical study, general finding): non-specific binding | Binding to responding tumors in dose de-escalation study ([2]; radiation dose reduced to 5 Gy): not sufficient | Binding in second neoplasms not treated with radiation ([2]; two patients, non-responding tumors): not observed

GSRV (conserved subsequence) [conserved motif within peptides identified by in vivo panning]
Frequency of Recovery of conserved sequence (LLC and GL261 tumors): 6%

GSSV (conserved subsequence) [conserved motif within peptides identified by in vivo panning]
Phage recovered from irradiated tumors (LLC and GL261 tumors; phage with peptide insert comprising the subsequence, no phage with wild type): 22-40 of 10^6 injected phage | Frequency of Recovery of conserved sequence (LLC and GL261 tumors): 58%

GSXV [conserved motif within peptides identified by in vivo panning]
Frequency of Recovery of conserved sequence (LLC and GL261 tumors): 80%

NSV (conserved sequence) [N-terminal NSV, conserved N-terminal motif, N encoded by the vector]
Frequency of Recovery of conserved sequence (LLC and GL261 tumors): 22%

NSXR [N-terminal NSXR, conserved N-terminal motif, N encoded by the vector]
Frequency of Recovery of conserved sequence (LLC and GL261 tumors): 39%

NXVG [N-terminal NXVG, conserved N-terminal motif, N encoded by the vector]
Frequency of Recovery of conserved sequence (LLC and GL261 tumors): 34%

RGDGSSV (also: biotin, site not given here) [tested as biotinylated peptide]
Frequency of Recovery of conserved sequence (LLC and GL261 tumors): 28% | Peptide binding in irradiated (responding) tumor ([3]; biotinylated peptide by tail vein immediately prior to irradiation, right tumor irradiated): accumulation throughout the lumen of responding tumors | Peptide binding in untreated control tumor ([3]; biotinylated peptide by tail vein, left tumor untreated internal control): near absence of binding

RGXGSXV [conserved motif in phage recovered from treated LLC tumors]
Frequency of sequence in phage recovered from treated LLC tumors (LLC tumors; treated LLC tumors): 41%

SGRKVGSGSSV (Peptide that binds to LLC and/or GL261 tumors) [peptide isolated by in vivo panning of a phage library]
Phage Recovered from LLC tumors (Frequency) (LLC tumors; Experiment B): (50%) | Phage Recovered from LLC tumors (LLC tumors; [5]): 7

SKEK (Peptide that binds to LLC and/or GL261 tumors) [peptide isolated by in vivo panning of a phage library]
Phage Recovered from LLC tumors (Frequency) (LLC tumors; Experiment B): (7%) | Phage Recovered from LLC tumors (LLC tumors; [5]): 1

SRKQGGTEV (Peptide that binds to LLC and/or GL261 tumors) [peptide isolated by in vivo panning of a phage library]
Phage Recovered from LLC tumors (Frequency) (LLC tumors; Experiment B): (7%) | Phage Recovered from LLC tumors (LLC tumors; [5]): 1

SVGSRV (Peptide that binds to LLC and/or GL261 tumors) [peptide isolated by in vivo panning of a phage library]
Phage Recovered from LLC tumors (LLC tumors; [6]): 1 | Phage Recovered from LLC tumors (Frequency) (LLC tumors; Experiment A, six rounds, 3 Gy): (4%) | Tumor models within which the phage-encoded peptide bound [4]: bound within lung carcinoma and glioma | Phage Recovered from GL261 tumors (GL261 tumors): 3 | Phage Recovered from GL261 tumors (Frequency) (GL261 tumors): (12%)

SVRGSGSGV (Peptide that binds to LLC and/or GL261 tumors) [peptide isolated by in vivo panning of a phage library]
Phage Recovered from LLC tumors (LLC tumors; [6]): 7 | Phage Recovered from LLC tumors (Frequency) (LLC tumors; Experiment A, six rounds, 3 Gy): (28%) | Tumor models within which the phage-encoded peptide bound [4]: bound within glioma and melanoma | Phage Recovered from GL261 tumors (GL261 tumors): 0 | Phage Recovered from GL261 tumors (Frequency) (GL261 tumors): (0%)

SVVRDGSEV (Peptide that binds to LLC and/or GL261 tumors) [peptide isolated by in vivo panning of a phage library]
Phage Recovered from LLC tumors (Frequency) (LLC tumors; Experiment B): (21%) | Phage Recovered from LLC tumors (LLC tumors; [5]): 3

SXRGXGS [conserved motif within peptides identified by in vivo panning]
Frequency of Recovery of conserved sequence (LLC and GL261 tumors): 28%
